Measurements reported in US9062032B2, “Aminoalkyl-substituted N-thienylbenzamide derivative” (ASTELLAS PHARMA INC., priority 2011, dated 2015).
Where a name gives a salt, the structure may show the parent alone.

Columns and labels:
rat NPT-IIb = target: T1, rat NPT-IIb (Rattus norvegicus, UniProt Q9JJ09); assay: Inhibitory action against 33P-phosphate uptake into rat NPT-IIb expression cell; type: cell-based; conditions: HEK293; compound concentration 1 μM; rat NPT-IIb stable expression 293 cells; read-out: Int. 1 (%): inhibition rate of the 33P-phosphate uptake into the rat NPT-IIb
T1 construct: rat NPT-IIb ORF was cloned into p3×FLAG-CMV-10 by PCR; expressed in transfected cells
T1 sequence (Q9JJ09 1-695): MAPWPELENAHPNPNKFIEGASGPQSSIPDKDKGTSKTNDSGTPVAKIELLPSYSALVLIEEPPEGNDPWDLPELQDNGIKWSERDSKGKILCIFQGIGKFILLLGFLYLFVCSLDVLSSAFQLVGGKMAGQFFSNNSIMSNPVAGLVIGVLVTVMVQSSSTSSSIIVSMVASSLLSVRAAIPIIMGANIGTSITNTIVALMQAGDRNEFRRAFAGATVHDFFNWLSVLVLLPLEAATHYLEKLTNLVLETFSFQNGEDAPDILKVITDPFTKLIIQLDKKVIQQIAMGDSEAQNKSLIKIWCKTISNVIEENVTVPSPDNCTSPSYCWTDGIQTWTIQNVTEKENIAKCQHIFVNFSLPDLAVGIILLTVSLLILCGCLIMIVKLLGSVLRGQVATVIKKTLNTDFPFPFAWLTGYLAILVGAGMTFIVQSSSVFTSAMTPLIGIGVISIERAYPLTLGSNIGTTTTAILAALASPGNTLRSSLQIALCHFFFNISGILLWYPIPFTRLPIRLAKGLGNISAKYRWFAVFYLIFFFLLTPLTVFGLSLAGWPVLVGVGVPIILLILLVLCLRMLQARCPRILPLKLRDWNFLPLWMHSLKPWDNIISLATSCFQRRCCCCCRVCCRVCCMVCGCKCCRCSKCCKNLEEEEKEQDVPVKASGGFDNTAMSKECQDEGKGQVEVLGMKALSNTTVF
Source text: Inhibitory Action Against ^33P-Phosphate Uptake into Rat NPT-IIb Expression Cell
(1) Preparation of Rat NPT-IIb Expression Cell
A rat small intestine cDNA library was used as a template, and rat NPT-IIb ORF was cloned into p3×FLAG-CMV-10 by PCR according to the prescribed method. Thereafter, 293 cells were transfected with the cloned rat NPT-IIb expression plasmid, thereby obtaining a rat NPT-IIb stable expression cell line by using G418.
(2) Evaluation System for Inhibition of Phosphate Uptake into Rat NPT-IIb Expression Cell
The rat NPT-IIb expression cells were seeded to a 96-well plate, followed by incubation overnight. Thereafter, the culture medium was removed, the plate was washed with buffer A (137 mM N-methyl-D-glucamine, 5.4 mM KCl, 2.8 mM CaCl2, 1.2 mM MgCl2, and 10 mM HEPES (adjusted to pH 7.4 using HCl)), and then buffer B (137 mM NaCl, 5.4 mM KCl, 2.8 mM CaCl2, 1.2 mM MgCl2, 0.1 mM KH2PO4, and 10 mM HEPES (adjusted to pH 7.4 using KOH)) was added thereto. Subsequently, a compound with a concentration of 10 times the evaluation concentration was prepared by dilution with the buffer B and added thereto. After the resultant was incubated in a CO2 incubator, the buffer B supplemented 50 μCi/mL of ^33P was added thereto, and then the resultant was incubated again in a CO2 incubator. After the reaction, the buffer was removed, the plate was washed with buffer C (137 mM NaCl, 10 mM Tris/HCl, pH 7.2). Thereafter, MicroScint-20 was added thereto, and ^33P uptake was measured using TopCount. An inhibition rate was calculated by the following formula. Inhibition rate (%)=(1−(^33P uptake of well treated with chemical)/(^33P uptake of DMSO-added well))×100
Table 1 illustrates examples of the inhibition rate (Int. 1) of the ^33P-phosphate uptake into the rat NPT-IIb in some of the compounds of the present invention at a concentration of drug efficacy evaluation of 1 μM. Here, Ex represents the number of example compounds described later (the same shall apply hereinafter).

[1] = test system: phosphate absorption from the intestinal tract; assay: Action of inhibiting increase in blood radioactivity in rat orally loaded with 32P phosphate (phosphate absorption inhibitory action); type: in vivo; conditions: male Wistar rats, 3 mg/kg oral, 32P phosphate load 5 min after dosing, serum radioactivity AUC0-30 min
Method: Action of Inhibiting Increase in Blood Radioactivity in Rat Orally Loaded with ^32P Phosphate (Phosphate Absorption Inhibitory Action)
Male Wistar rats (6- to 7-week old) were fasted for 24 hours and then used as experimental animals. The compound was suspended or dissolved with a solvent, and was used at a concentration of 0.6 mg/mL. The compound was forcibly orally administered at a dose of 3 mg/kg to the animals of a compound-administered group. Control-group animals were administered a solvent containing no compound at a dose of 5 mL/kg. After 5 minutes from administration of the compound or the solvent, a ^32P-containing phosphate solution (8.3 mM NaH2PO4) was orally administered thereto at a dose of 7.2 mL/kg. After 15 minutes and 30 minutes, the blood was taken from the orbital venous plexus and the serum was collected. Radioactivity in 0.1 mL of the serum was measured by a liquid scintillation counter. AUC0-30 min in calculated from the measured counts was considered as a phosphate absorption amount. The phosphate absorption inhibitory rate was determined from the AUC0-30 min value according to the following formula. Inhibition rate of phosphate absorption (%)=(1−phosphate absorption count of compound-administered group/phosphate absorption count of standard group)×100
Table 2 illustrates examples of the inhibition rate (Int. 2) of phosphate absorption in regard to some of the compounds of Formula (I).

| SMILES | inhibition at 1 µM (rat NPT-IIb) [%] | Int. 2 (%): inhibition rate of phosphate absorption [1] [%] |
| --- | --- | --- |
| CCC(CC)N(CCN(C)C(=O)OCC(=O)O)Cc1cccc(C(=O)Nc2sc3c(c2C(=O)Nc2ccc(CCc4ccc(C(=O)O)cc4)cc2)CCCC3)c1.Cl [Example 4, 4-(2-{4-[({2-[(3-{[(2-{[(carboxymethoxy)carbonyl](methyl)amino}ethyl)(pentan-3-yl)amino]methyl}benzoyl)amino]-4,5,6,7-tetrahydro-1-benzothiophen-3-yl}carbonyl)amino]phenyl}ethyl)benzoic acid hydrochloride] | 77 | 53 |
| CCN(CCN(Cc1cccc(C(=O)Nc2sc3c(c2C(=O)Nc2ccc(CCc4ccc(C(=O)O)cc4)cc2)CCCC3)c1)C1CC1)C(=O)CCC(=O)O [Example 31] | 87 | – |
| CN(CCN(Cc1cccc(C(=O)Nc2sc3c(c2C(=O)Nc2ccc(CCc4ccc(C(=O)O)cc4)cc2)CCCC3)c1)C1CC1)C(=O)CCC(=O)O [Example 37] | 77 | – |
| CCC(CC)N(CCN(C)C(=O)CCC(=O)O)Cc1cccc(C(=O)Nc2sc(C3CCCCC3)cc2C(=O)Nc2ccc(CCc3ccc(C(=O)O)cc3)cc2)c1 [Example 41] | 73 | – |
| CCC(CC)N(CCN(C)C(=O)CCC(=O)O)Cc1cccc(C(=O)Nc2sc3c(c2C(=O)Nc2ccc(CCc4ccc(C(=O)O)cc4)cc2)CCCCCC3)c1 [Example 43] | 65 | – |
| CCC(CC)N(CCN(C)C(=O)CCC(=O)O)Cc1cccc(C(=O)Nc2sc3c(c2C(=O)Nc2ccc(CCCc4ccc(C(=O)O)cc4)cc2)CCCC3)c1 [Example 53] | 85 | – |
| CCC(CC)N(CCN(CCOC)C(=O)CCC(=O)O)Cc1cccc(C(=O)Nc2sc3c(c2C(=O)Nc2ccc(CCc4ccc(C(=O)O)cc4)cc2)CCCC3)c1.Cl [Example 60] | 86 | 56 |
| CCC(CC)N(CCCN(C)C(=O)CCC(=O)O)Cc1cccc(C(=O)Nc2sc3c(c2C(=O)Nc2ccc(CCc4ccc(C(=O)O)cc4)cc2)CCCC3)c1.Cl [Example 66] | 76 | 59 |
| CCC(CC)N(CCN(C)C(=O)CCC(C)(C)C(=O)O)Cc1cccc(C(=O)Nc2sc3c(c2C(=O)Nc2ccc(CCc4ccc(C(=O)O)cc4)cc2)CCCC3)c1 [Example 67, 4-(2-{4-[({2-[(3-{[{2-[(4-carboxy-4-methylpentanoyl)(methyl)amino]ethyl}(pentan-3-yl)amino]methyl}benzoyl)amino]-4,5,6,7-tetrahydro-1-benzothiophen-3-yl}carbonyl)amino]phenyl}ethyl)benzoic acid hydrochloride] | 89 | – |
| CCC(CC)N(CCN(C)C(=O)CCC(=O)O)Cc1cccc(C(=O)Nc2sc3c(c2C(=O)Nc2ccc(CCc4ccc(C(=O)O)cc4)nc2)CCCC3)c1 [Example 96] | 70 | – |
| CCC(CC)N(Cc1cccc(C(=O)Nc2sc3c(c2C(=O)Nc2ccc(CCc4ccc(C(=O)O)cc4)cc2)CCCC3)c1)C(=O)CCC(C)(C)C(=O)O [Example 109, 4-(2-{4-[({2-[(3-{[(4-carboxy-4-methylpentanoyl)(pentan-3-yl)amino]methyl}benzoyl)amino]-4,5,6,7-tetrahydro-1-benzothiophen-3-yl}carbonyl)amino]phenyl}ethyl)benzoic acid] | 86 | – |
| CCC(CC)N(Cc1cccc(C(=O)Nc2sc3c(c2C(=O)Nc2ccc(CCc4ccc(C(=O)O)cc4)cc2)CCCC3)c1)C(=O)CC(C)(C)CC(=O)O [Example 121, 4-(2-{4-[({2-[(3-{[(4-carboxy-3,3-dimethylbutanoyl)(pentan-3-yl)amino]methyl}benzoyl)amino]-4,5,6,7-tetrahydro-1-benzothiophen-3-yl}carbonyl)amino]phenyl}ethyl)benzoic acid] | 79 | – |

Further lines, with some results ahead:

| inhibition at 1 µM (rat NPT-IIb) [%] | SMILES | Int. 2 (%): inhibition rate of phosphate absorption [1] [%] |
| --- | --- | --- |
| 87 | CCC(CC)N(CCN(C)C(=O)CCC(=O)O)Cc1cccc(C(=O)Nc2sc3c(c2C(=O)Nc2ccc(CCc4ccc(C(=O)O)cc4)cc2)CCCC3)c1.Cl [Example 2, 4-(2-{4-[({2-[(3-{[{2-[(3-carboxypropanoyl)(methyl)amino]ethyl}(pentan-3-yl)amino]methyl}benzoyl)amino]-4,5,6,7-tetrahydro-1-benzothiophen-3-yl}carbonyl)amino]phenyl}ethyl)benzoic acid hydrochloride] | >60 |
| 61 | CC(C)N(CCN(C)C(=O)CCC(=O)O)Cc1cccc(C(=O)Nc2sc3c(c2C(=O)Nc2ccc(CCc4ccc(C(=O)O)cc4)cc2)CCCC3)c1 [Example 38] | – |
| 60 | CC(C)[C@@H](C)N(CCN(C)C(=O)CCC(=O)O)Cc1cccc(C(=O)Nc2sc3c(c2C(=O)Nc2ccc(CCc4ccc(C(=O)O)cc4)cc2)CCCC3)c1 [Example 70] | – |
| 75 | CCC(CC)N(CCc1cccc(C(=O)Nc2sc3c(c2C(=O)Nc2ccc(CCc4ccc(C(=O)O)cc4)cc2)CCCC3)c1)CCN(C)C(=O)CCC(=O)O [Example 79] | – |
| 71 | CCC(CC)N(CCN(C)C(=O)CCC(=O)O)Cc1cc(C(=O)Nc2sc3c(c2C(=O)Nc2ccc(CCc4ccc(C(=O)O)cc4)cc2)CCCC3)ccn1 [Example 99] | – |
| 48 | CC(C)N(Cc1cccc(C(=O)Nc2sc3c(c2C(=O)Nc2ccc(CCc4ccc(C(=O)O)cc4)cc2)CCCC3)c1)[C@H]1CC[C@H](C(=O)O)CC1 [Example 172] | – |
